Measured values as given in patent publication US20070203194A1, “Ion channel modulators” (SCION PHARMACEUTICALS, INC., priority 2004, published 2007).

tested on: calcium channel (e.g., L-type, N-type, etc.) current; assay: HEK assay (whole-cell patch clamp of calcium channel currents in transiently transfected HEK-293T/17 cells); assay type: cell-based; details: whole-cell voltage clamp, holding potential −100 mV
Description: HEK-293T/17 cells are transiently transfected in a similar manner as described in FuGENE 6 Package Insert Version 7, April 2002, Roche Applied Science, Indianapolis, Ind. The cells are plated at 2.5×10^5 cells in 2 mL in a 6-well plate in incubator for one night and achieve a 30-40% confluence. In a small sterile tube, add sufficient serum-free medium as diluent for FuGENE Transfection Reagent (Roche Applied Science, Indianapolis, Ind.), to a total volume of 100 μL. Add 3 μL of FuGENE 6 Reagent directly into this medium. The mixture is tapped gently to mix. 2 μg of DNA solution (0.8-2.0 μg/μL) is added to the prediluted FuGENE 6 Reagent from above. The DNA/Fugene 6 mixture is gently pipetted to mix the contents and incubated for about 15 minutes at room temperature. The complex mixture is then added to the HEK-293T/17 cells, distributing it around the well, and swirled to ensure even dispersal. The cells are returned to the incubator for 24 hrs. The transfected cells are then replated at density 2.5×10^5 in a 35 mm dish with 5 glass coverslips and grow in low serum (1%) media for 24 hrs. Coverslips with isolated cells are then transferred into chamber and calcium channel (e.g., L-type, N-type, etc.) current or other currents for counter screening are recorded from the transiently transfected HEK-293T/17 cells.
The whole-cell voltage clamp configuration of the patch clamp technique is employed to evaluate voltage-dependent calcium currents essentially as described by Thompson and Wong (1991) J. Physiol., 439: 671-689. To record calcium channel (e.g., L-type, N-type, etc.) currents for evaluation of inhibitory potency of compounds (steady-state concentration-response analysis), five pulses of 20-30 ms voltage steps to about +10 mV (the peak of the current voltage relationship) are delivered at five Hz every 30 second from a holding potential at −100 mV. Compound evaluations were carried out essentially as described by Sah D W and Bean B P (1994) Mol Pharmacol. 45(1):84-92. Table 3 contains IC50's for representative compounds.

Row | IC50 [µM] | SMILES
1 | 0.378 | COc1ccc(C(=O)CSc2nnc(CNc3ccc(F)cc3)n2-c2ccc(C)cc2)cc1 [Compound 5]
2 | 0.695 | COc1ccccc1-c1nnc(SCC(=O)Nc2ccccn2)n1-c1ccc(C)cc1 [Compound 27]
3 | 0.572 | COc1ccc(C(=O)CSc2nnc(-c3ccccc3OC)n2-c2ccc(C)cc2)cc1 [Compound 28]
